Measurements: patent US6964870B2, “Enhanced selection of genetically modified pine embryogenic tissue” (MeadWestvaco Corporation, priority 2000, dated 2005)

Columns and labels:
Format in all cases: cell-based
[1] = system: cell lines that are progeny of the elite P. taeda line 7-56; assay: Biolistic transformation, ABA in recovery and selection media (Example 2)
Procedure: Loblolly pine cell lines were used which had been grown and maintained as described in Example 1 above, and prepared for biolistic transformation as described in Example 1 above. In this example, only cell lines that are progeny of the elite P. taeda line 7-56 were used. Following bombardment the support membranes bearing the bombarded embryogenic cells were transferred to DCR2 maintenance media, either with or without the addition of 10 mg/l ABA for one week. Following this the support membranes bearing the bombarded embryogenic cells were placed on plates containing gelled DCR selection medium with 10 mg/l abscisic acid (ABA), and cultured for three days, so that all cells were exposed to 10 mg/l ABA in the selection medium for the first three days of selection. Following this the support membranes bearing the bombarded embryogenic cells were evenly divided among gelled media containing 5, 10, or 20 mg/l ABA for a period of two weeks. Following this, the support membranes bearing the bombarded embryogenic cells were evenly divided among gelled media containing 0, 5, 10, or 20 mg/l ABA for the remaining selection period, and transferred every three weeks to fresh selection media of the same composition.
The cells were also checked for the presence of sequences by PCR amplification using primers specific for both the uidA and nptII transgenes, techniques well known to those skilled in the art of plant transformation.

[2] = system: loblolly pine cell lines or hybrid cell lines; assay: ABA in culture media during and after co-cultivation with Agrobacterium, all lines (Example 4)
Source text: Seven loblolly pine cell lines or hybrid cell lines from seven widely diverse genetic backgrounds were used in this experiment. To prepare for gene transfer using Agrobacterium, fabric supports were sterilized by autoclaving and placed in a sterile Buchner funnel, and one to five milliliters of embryogenic suspension was pipetted onto each support such that the embryogenic tissue was evenly distributed over its surface. Following this the liquid medium was suctioned from the tissues and each support bearing the embryogenic tissue was placed on gelled medium for inoculation by Agrobacterium. In this case the medium used was the same as the preparation medium described in Example 1 above, except that the medium, used here for preparation and co-cultivation of the cells, contained ABA at 0, 10, or 30 mg/L as an experimental condition. Genes were then introduced into the plant material by co-cultivation with Agrobacterium(Wenck et al. 1999). Specifically, gene constructs containing a reporter gene and a selectable marker were introduced into Agrobacterium tumefaciens strain EHA105 with the virulence-enhancing plasmid pTOK47 (Wenck et al. 1999), by techniques well known to those skilled in the art, and virulence was then induced with administration of acetosyringone by commonly used techniques, well known to those skilled in the art, whereupon the induced Agrobacterium was dripped over the plant material and these were co-cultivated in the dark at 23°±2° C. for approximately 24-72 hours. Those skilled in the art recognize that many different gene constructs, plasmids, strains, media, and co-cultivation times and protocols would be suitable for use in the present method.
Supports bearing approximately 0.1 g of embryogenic tissue were divided onto recovery media (having the same formulation as the maintenance medium except for the addition of 400 mg/L TIMENTIN® antibiotic) either containing or lacking ABA. […] Concentrations of ABA used in all these media were 0, 10, and 30 mg/l.
Cells were maintained on the selection media, with transfer of the polyester support membranes to fresh selection media of the same composition, every two weeks for a total of eight weeks of selection. Cells from actively growing sublines from selection were examined using stereomicroscopes for the expression of the visual marker gene uidA at the conclusion of the selection period. All of the sublines capable of active growth on selection medium were seen to express levels of the visual marker gene product that enabled them to be readily distinguished from non-selected cells. This continuing expression of the transgenes after at least twelve weeks following bombardment confirmed the integration of the transgenes in these sublines. […]

[3] = system: embryogenic lines of crosses with P. taeda selection 7-56; assay: Recovery of transformants from elite crosses with ABA in selection media (Agrobacterium and bombardment experiments)
[4] = system: precotyledonary embryos of loblolly pine or hybrid cell lines; assay: Bombardment of precotyledonary embryos on preparation medium with high ABA (Example 3); conditions: preparation medium for bombardment with 125 mg/L ABA; lines of cross 7-56×9-6 and others incl. interspecific hybrids
Procedure: For transformation in this example, the tissue was bombarded using conditions described in Example 1 except that the tissue had been plated on MSG2 medium containing 125 mg/L ABA and 70 g/L PEG 3-8 weeks previously, instead of on medium DCR3 one day previously, so that the experimental treatment consisted of precotyledonary embryos at various stages of development. Following DNA transfer, visible pre-stage 3 embryos were dissected from the bombarded tissues and placed individually onto DCR2 as described above for secondary proliferation.
Following a period of one to 14 days, when a preponderance of pre-stage 3 embryos dissected from the bombarded tissue could be seen to be beginning to proliferate secondary embryogenic cell masses, samples to be assayed for transformation were transferred to a selection medium identical to DCR2 except that it contained […] to initiate secondary embryogenesis. Samples of isolated pre-stage 3 embryos from each line and the secondary tissue proliferating from them were also cultured on DCR2 maintenance media without selection agent to observe any effect of the bombardment treatment on proliferation. These cultures were transferred to fresh maintenance media every three weeks. Proliferation of these non-selected controls at nine weeks after dissection is recorded in Table 4. […]

SMILES: CC1=CC(=O)CC(C)(C)[C@@]1(O)/C=C/C(C)=C\C(=O)O [ABA, abscisic acid]
- number of transformants detected ([1]; 10 mg/L ABA in the recovery media): did not significantly increase the number of transformants detected
- transformants recovered after ten weeks of selection ([1]; 5, 10, or 20 mg/l ABA present for the latter 9 weeks of selection): Transformants were recovered
- transformants recovered after ten weeks of selection ([1]; ABA concentration increased to 20 mg/l after the first transfer on selection media): the largest number of transformants were recovered
- necrotic foci in somatic embryogenic masses ([2]; 10 or 30 mg/L ABA during and after co-cultivation with Agrobacterium vs media without ABA, all lines): fewer necrotic foci
- effect on observation of transformants ([2]; 10 or 30 mg/l ABA in the preparation medium): neutral or beneficial
- doubling of somatic embryogenic masses ([2]; ABA in recovery medium after co-cultivation with Agrobacterium vs no ABA, certain P. taeda lines and hybrids): able to double more rapidly
- effect on observation of transformants ([2]; ABA in the recovery medium): similarly neutral or beneficial
- lines attempted from which transformants recovered ([3]; cross 7-56×9-6, ABA in the selection media): more than 80%
- lines attempted from which transformants recovered ([3]; crosses with elite P. taeda selection 7-56 as a parent, ABA in selection media, media containing 5-30 mg/L ABA): more than 80%
- frequency of transformants [4]: surprisingly high frequency of transformants
